According to US5783449A (priority 1996, dated 1998):

Tests used:
[1] = clinical; conditions: in vivo
Text: Even though ethanol elimination begins at very outset of consumption, formally the process breaks out from an apex into a pharmacokinetical curve--the break point of a neutralizing reaction against extreme absorption-distribution action.
AUCabs-distr is the absorption-distribution of ethanol and is equal to the AUC under the ascending part of the curve;
AUCpostabs +AUCdistr is a sum of the postabsorption and distribution of ethanol and is equal to the AUC between the ascending and descending part of the plotted curve. Because most pharmacokinetical cases have a triangle-like shape for the curve, it obviously has no value. However, if the value occurs (in a case with a trapezium-like shape for the curve) it disregards from calculation, because proportional representation for this internal rectangular-like composite AUC is the same as the Index-K value;
and AUCelim is the elimination of ethanol and is equal to the AUC under the descending part of the pharmacokinetical curve.
(§1) To verify the results, after ethanol consumption, BAC levels were repeatedly measured by INTOXIMETER EC/IR 3000, until two successive zero BAC measurements were obtained. […] A special electrochemical membrane measured oxidation by transdermal ethanol. The resulting current measured is expressed in micro Amperes (μA) and was automatically multiplied by 35 for TAS#37; by 40 for TAS#34, TAS#39, or by 45 for TAS#33 depending on type of construction for the device.
BAC tests were conducted on 83 volunteer individuals, 48 of whom were non-alcoholic males, 27 of whom were non-alcoholic females and 8 of whom were alcoholic males.
This dose was divided into three equal parts.
(§2) The BAC readings used in tables 1 and 2 were obtained using breath samples taken with the INTOXIMETER EC/IR 3000 made by Intoximeters, Inc. of St. Louis, Mo. This device has a rated accuracy of ±0.001 (1 mg/dl). The machine was reprogrammed to increase ethanol values by five percent from factory settings to more accurately reflect actual BAC.

[2] = in vivo
Protocol: as §2

[3] = in vivo; remark: listed apart in the source
Text: as §1

[4] = test system: Microsomal Ethanol-Oxidation System (MEOS); conditions: human body; stated as well known; cited from earlier work

Time to peak ([1]; human, po): 66 '
peak in the BAC ([1]; human, po): 68.2 (s.d.=8.98)
Cmax ([1]; human, po, peak in the BAC): 697 µg/mL
ratio of Index-K between alcoholic and non-alcoholic drinkers [1]: about twice
blood/breath ratio [2]: 0.994
Index-K (range over methods) [3]: 1.9-1.97
variation in the amplitude of the curves [3]: 2.7 fold
variation of the elimination time [3]: 1.9 fold
variation of the time to peak [3]: 1.7 fold
SMILES: CCO [alcohol, ethanol]
fraction of consumed alcohol destroyed by MEOS [4]: approximately one-fifth
